From patent US8614201B2 (Janssen Pharmaceutica NV, priority 2009, dated 2013)

Each compound was assayed against Human TRPA1 (Homo sapiens, UniProt O75762) (assay: Assay 1: In vitro cellular testing of TRPA1 modulation (CHO-TREx, Fluo-3 calcium fluorescence, AITC agonist)). Conditions: CHO-TREx cells expressing human TRPA1; Fluo-3 fluorescence (FLIPR/Tetra); agonist 15 μM allyl isothiocyanate (AITC); 30 minute antagonist incubation.
Chain of Human TRPA1 (O75762 whole entry): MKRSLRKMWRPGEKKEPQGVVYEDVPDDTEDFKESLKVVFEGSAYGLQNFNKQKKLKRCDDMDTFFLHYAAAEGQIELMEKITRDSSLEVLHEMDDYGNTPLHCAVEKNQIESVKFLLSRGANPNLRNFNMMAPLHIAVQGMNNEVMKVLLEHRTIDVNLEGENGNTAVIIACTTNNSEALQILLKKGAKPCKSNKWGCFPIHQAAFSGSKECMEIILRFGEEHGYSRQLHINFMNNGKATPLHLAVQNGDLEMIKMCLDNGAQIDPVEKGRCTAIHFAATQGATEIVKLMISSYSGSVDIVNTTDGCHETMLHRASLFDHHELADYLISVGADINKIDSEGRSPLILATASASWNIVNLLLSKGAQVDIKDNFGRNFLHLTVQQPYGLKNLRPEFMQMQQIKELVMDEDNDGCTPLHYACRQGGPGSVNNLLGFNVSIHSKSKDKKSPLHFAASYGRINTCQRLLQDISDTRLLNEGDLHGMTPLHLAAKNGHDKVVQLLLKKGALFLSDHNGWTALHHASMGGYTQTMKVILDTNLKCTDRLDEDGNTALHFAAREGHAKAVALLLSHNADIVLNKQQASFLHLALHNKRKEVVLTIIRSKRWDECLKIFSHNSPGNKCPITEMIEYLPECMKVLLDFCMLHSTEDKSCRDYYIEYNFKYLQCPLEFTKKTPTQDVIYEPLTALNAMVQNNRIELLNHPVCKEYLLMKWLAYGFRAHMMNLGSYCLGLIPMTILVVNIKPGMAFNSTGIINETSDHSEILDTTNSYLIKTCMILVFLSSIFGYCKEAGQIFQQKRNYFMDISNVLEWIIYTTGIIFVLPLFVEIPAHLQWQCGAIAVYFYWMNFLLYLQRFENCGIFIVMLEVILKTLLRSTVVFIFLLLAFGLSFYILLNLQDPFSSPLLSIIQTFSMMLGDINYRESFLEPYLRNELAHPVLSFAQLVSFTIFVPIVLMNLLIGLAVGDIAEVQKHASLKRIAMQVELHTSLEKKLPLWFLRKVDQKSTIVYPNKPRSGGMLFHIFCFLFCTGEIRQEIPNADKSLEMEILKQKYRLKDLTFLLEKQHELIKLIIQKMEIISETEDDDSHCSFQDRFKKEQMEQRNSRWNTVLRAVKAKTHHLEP
Assay type: cell-based
Set-up: expressed in transfected cells; host or cells: CHO-TREx cells (Invitrogen), vector pcDNA4/TO
Experimental: Assay 1: In Vitro Cellular Testing of TRPA1 Modulation
Human TRPA1 (NCBI accession number NM_007332.1) was cloned into pcDNA4/TO. CHO-TREx cells (Invitrogen, Carlsbad, Calif.) were stably transfected with pcDNA4/TO-TRPA1 using lipofection to generate a clonal cell line that expressed human TRPA1 in a tetracycline-inducible manner. Culture medium used was Ham's F-12 supplemented with 10% fetal bovine serum, 2 mM L-glutamine, 5 μg/ml blasticidin and 200 μg/ml zeocin. Cells were seeded in black-walled clear-bottom 96-well plates at a density of 50,000 cells per well and cultured overnight at 37° C. with 5% CO2 in culture medium supplemented with 1 μg/ml tetracycline. On the day of the experiment, cells were washed 3 times with HEPES buffered saline (in mM: NaCl 137, MgCl2 0.5, KCl 2, dextrose 5, CaCl2 2 and HEPES 10; pH 7.4). Cells were then loaded with calcium-sensitive fluorescent dye by incubation in the presence of 4 μM Fluo-3 AM (TefLabs, Austin, Tex.) at room temperature in the dark for 60 minutes. After incubation with dye, cells were washed in assay buffer and, if appropriate, antagonists were added at this time. Following a further 30 minute incubation, cells were assayed using a Fluorometric Imaging Plate Reader (FLIPR™) or a Tetra (both manufactured by Molecular Devices, CA) to simultaneously monitor Fluo-3 fluorescence in all wells (λexcitation=488 nm, λemission=540 nm). Changes in fluorescence were monitored for 3 minutes after the addition of 15 μM allyl isothiocyanate (AITC) as an agonist. Concentration-dependence of receptor blocking was determined by exposing each well of cells in duplicate rows of a 96-well plate to a serial dilution of test compound. The concentration series usually started at 10 μM with a three-fold serial decrement in concentration. The magnitude of the response to agonist challenge was determined by measuring the fluorescence before and 3 minutes after the addition of the agonist. The degree of blocking was determined by comparing the response to that of negative (no added antagonist) and positive (10 μM ruthenium red) control wells. Data were analyzed using a non-linear regression program (Origin; OriginLab, MA) to fit the concentration-response data to a Hill function. Antagonist potencies were determined as the concentration required to produce 50% reduction in the response as compared to the negative and positive controls.
`CC(NC(=O)[C@@H]1CCCN1S(=O)(=O)c1ccc(F)cc1)c1cc(-c2ccc(C(F)(F)F)cc2)ncn1` (single isomer, unassigned) [Example 181, (1S*,2S)-1-(4-Fluoro-benzenesulfonyl)-pyrrolidine-2-carboxylic acid {1-[6-(4-trifluoromethyl-phenyl)-pyrimidin-4-yl]-ethyl}-amide] was tested, and the IC50 was 602 nM. `CC(NC(=O)[C@@H]1CCCN1S(=O)(=O)c1ccc(F)cc1)c1cc(-c2ccc(C(F)(F)F)cc2)ncn1` (single isomer, unassigned) [Example 182, (1R*,2S)-1-(4-Fluoro-benzenesulfonyl)-pyrrolidine-2-carboxylic acid {1-[6-(4-trifluoromethyl-phenyl)-pyrimidin-4-yl]-ethyl}-amide] showed an IC50 of 923 nM. Compound `CC(C)CN1CCN(c2nc(CNC(=O)[C@@H]3CCCN3S(=O)(=O)c3ccc(F)cc3)cc(-c3ccc(C(F)(F)F)cc3)n2)CC1` [Example 1, 1-(4-Fluoro-benzenesulfonyl)-pyrrolidine-2S-carboxylic acid [2-(4-isobutyl-piperazin-1-yl)-6-(4-trifluoromethyl-phenyl)-pyrimidin-4-ylmethyl]-amide] has an IC50 of 36 nM. In the case of `COc1nc(CNC(=O)[C@@H]2CCCN2S(=O)(=O)c2ccc(F)cc2)cc(-c2ccc(C(F)(F)F)cc2)n1` [Example 2, 1-(4-Fluoro-benzenesulfonyl)-pyrrolidine-2S-carboxylic acid [2-methoxy-6-(4-trifluoromethyl-phenyl)-pyrimidin-4-ylmethyl]-amide], the IC50 is reported as 40 nM. In the case of `O=C(NCc1cc(-c2ccc(C(F)(F)F)cc2)nc(-c2cccnc2)n1)[C@@H]1CCCN1S(=O)(=O)c1ccc(F)cc1` [Example 3, 1-(4-Fluoro-benzenesulfonyl)-pyrrolidine-2S-carboxylic acid [2-pyridin-3-yl-6-(4-trifluoromethyl-phenyl)-pyrimidin-4-ylmethyl]-amide], the IC50 is reported as 108 nM. Work on `O=C(NCc1cc(-c2ccc(C(F)(F)F)cc2)nc(-c2ccc(C(F)(F)F)cc2)n1)[C@@H]1CCCN1S(=O)(=O)c1ccc(F)cc1` [Example 4, 1-(4-Fluoro-benzenesulfonyl)-pyrrolidine-2S-carboxylic acid [2,6-bis-(4-trifluoromethyl-phenyl)-pyrimidin-4-ylmethyl]-amide] yielded an IC50 of 3 nM. With `O=C(NCc1cc(-c2ccc(C(F)(F)F)cc2)nc(-c2cccc(C(F)(F)F)c2)n1)[C@@H]1CCCN1S(=O)(=O)c1ccc(F)cc1` [Example 5, 1-(4-Fluoro-benzenesulfonyl)-pyrrolidine-2S-carboxylic acid [2-(3-trifluoromethyl-phenyl)-6-(4-trifluoromethyl-phenyl)-pyrimidin-4-ylmethyl]-amide] the IC50 was 9 nM. Compound `O=C(NCc1cc(-c2ccc(C(F)(F)F)cc2)nc(-c2ccccc2C(F)(F)F)n1)[C@@H]1CCCN1S(=O)(=O)c1ccc(F)cc1` [Example 6, 1-(4-Fluoro-benzenesulfonyl)-pyrrolidine-2S-carboxylic acid [2-(2-trifluoromethyl-phenyl)-6-(4-trifluoromethyl-phenyl)-pyrimidin-4-ylmethyl]-amide] has an IC50 of 11 nM. In the case of `O=C(NCc1cc(-c2ccc(C(F)(F)F)cc2)nc(-c2ccncc2)n1)[C@@H]1CCCN1S(=O)(=O)c1ccc(F)cc1` [Example 7, 1-(4-Fluoro-benzenesulfonyl)-pyrrolidine-2S-carboxylic acid [2-pyridin-4-yl-6-(4-trifluoromethyl-phenyl)-pyrimidin-4-ylmethyl]-amide], the IC50 is reported as 229 nM. `Nc1nc(CNC(=O)[C@@H]2CCCN2S(=O)(=O)c2ccc(F)cc2)cc(-c2ccc(C(F)(F)F)cc2)n1` [Example 8, 1-(4-Fluoro-benzenesulfonyl)-pyrrolidine-2S-carboxylic acid [2-amino-6-(4-trifluoromethyl-phenyl)-pyrimidin-4-ylmethyl]-amide] showed an IC50 of 475 nM. `CC(C)N1CCN(c2nc(CNC(=O)[C@@H]3CCCN3S(=O)(=O)c3ccc(F)cc3)cc(-c3ccc(C(F)(F)F)cc3)n2)CC1` [Example 9, 1-(4-Fluoro-benzenesulfonyl)-pyrrolidine-2S-carboxylic acid [2-(4-isopropyl-piperazin-1-yl)-6-(4-trifluoromethyl-phenyl)-pyrimidin-4-ylmethyl]-amide] was tested, and the IC50 was 542 nM. Work on `CN(C)c1nc(CNC(=O)[C@@H]2CCCN2S(=O)(=O)c2ccc(F)cc2)cc(-c2ccc(C(F)(F)F)cc2)n1` [Example 10, 1-(4-Fluoro-benzenesulfonyl)-pyrrolidine-2S-carboxylic acid [2-dimethylamino-6-(4-trifluoromethyl-phenyl)-pyrimidin-4-ylmethyl]-amide] yielded an IC50 of 30 nM. `O=C(NCc1cc(-c2ccc(C(F)(F)F)cc2)ncn1)[C@@H]1CCCN1S(=O)(=O)c1ccc(F)cc1` [Example 11, 1-(4-Fluoro-benzenesulfonyl)-pyrrolidine-2S-carboxylic acid [6-(4-trifluoromethyl-phenyl)-pyrimidin-4-ylmethyl]-amide] gave an IC50 of 65 nM. `CN1CCC(CNc2nc(CNC(=O)[C@@H]3CCCN3S(=O)(=O)c3ccc(F)cc3)cc(-c3ccc(C(F)(F)F)cc3)n2)C1` (stereo partly drawn) [Example 12, 1-(4-Fluoro-benzenesulfonyl)-pyrrolidine-2S-carboxylic acid [2-[(1-methyl-pyrrolidin-3-ylmethyl)-amino]-6-(4-trifluoromethyl-phenyl)-pyrimidin-4-ylmethyl]-amide] gave an IC50 of 1090 nM. Work on `CCC(CC)N1CCN(c2nc(CNC(=O)[C@@H]3CCCN3S(=O)(=O)c3ccc(F)cc3)cc(-c3ccc(C(F)(F)F)cc3)n2)CC1` [Example 13, 1-(4-Fluoro-benzenesulfonyl)-pyrrolidine-2S-carboxylic acid [2-[4-(1-ethyl-propyl)-piperazin-1-yl]-6-(4-trifluoromethyl-phenyl)-pyrimidin-4-ylmethyl]-amide] yielded an IC50 of 90 nM. For `CNc1nc(CNC(=O)[C@@H]2CCCN2S(=O)(=O)c2ccc(F)cc2)cc(-c2ccc(C(F)(F)F)cc2)n1` [Example 14, 1-(4-Fluoro-benzenesulfonyl)-pyrrolidine-2S-carboxylic acid [2-methylamino-6-(4-trifluoromethyl-phenyl)-pyrimidin-4-ylmethyl]-amide], the IC50 was 21 nM. `CCN1CCN(c2nc(CNC(=O)[C@@H]3CCCN3S(=O)(=O)c3ccc(F)cc3)cc(-c3ccc(C(F)(F)F)cc3)n2)CC1` [Example 15, 1-(4-Fluoro-benzenesulfonyl)-pyrrolidine-2S-carboxylic acid [2-(4-ethyl-piperain-1-yl)-6-(4-trifluoromethyl-phenyl)-pyrimidin-4-ylmethyl]-amide] showed an IC50 of 418 nM. With `CC(Nc1nc(CNC(=O)[C@@H]2CCCN2S(=O)(=O)c2ccc(F)cc2)cc(-c2ccc(C(F)(F)F)cc2)n1)c1ccccn1` (stereo partly drawn) [Example 16, 1-(4-Fluoro-benzenesulfonyl)-pyrrolidine-2S-carboxylic acid [2-(1-pyridin-2-yl-ethylamino)-6-(4-trifluoromethyl-phenyl)-pyrimidin-4-ylmethyl]-amide] the IC50 was 34 nM. `CN(C)CCN1CCN(c2nc(CNC(=O)[C@@H]3CCCN3S(=O)(=O)c3ccc(F)cc3)cc(-c3ccc(C(F)(F)F)cc3)n2)CC1` [Example 17, 1-(4-Fluoro-benzenesulfonyl)-pyrrolidine-2S-carboxylic acid [2-[4-(2-dimethylamino-ethyl)-piperazin-1-yl]-6-(4-trifluoromethyl-phenyl)-pyrimidin-4-ylmethyl]-amide] showed an IC50 of 2080 nM. Compound `CN(C)CCN(C)c1nc(CNC(=O)[C@@H]2CCCN2S(=O)(=O)c2ccc(F)cc2)cc(-c2ccc(C(F)(F)F)cc2)n1` [Example 18, 1-(4-Fluoro-benzenesulfonyl)-pyrrolidine-2S-carboxylic acid [2-[(2-dimethylamino-ethyl)-methyl-amino]-6-(4-trifluoromethyl-phenyl)-pyrimidin-4-ylmethyl]-amide] has an IC50 of 1850 nM. In the case of `O=C(NCc1cc(-c2ccc(C(F)(F)F)cc2)nc(N2CCN(Cc3cccnc3)CC2)n1)[C@@H]1CCCN1S(=O)(=O)c1ccc(F)cc1` [Example 19, 1-(4-Fluoro-benzenesulfonyl)-pyrrolidine-2S-carboxylic acid [2-(4-pyridin-3-ylmethyl-piperazin-1-yl)-6-(4-trifluoromethyl-phenyl)-pyrimidin-4-ylmethyl]-amide], the IC50 is reported as 16 nM. Work on `CN1CCC(CN2CCN(c3nc(CNC(=O)[C@@H]4CCCN4S(=O)(=O)c4ccc(F)cc4)cc(-c4ccc(C(F)(F)F)cc4)n3)CC2)CC1` [Example 20, 1-(4-Fluoro-benzenesulfonyl)-pyrrolidine-2S-carboxylic acid [2-[4-(1-methyl-piperidin-4-ylmethyl)-piperazin-1-yl]-6-(4-trifluoromethyl-phenyl)-pyrimidin-4-ylmethyl]-amide] yielded an IC50 of 2050 nM.
